This passage reports logP results from the SangsterLogP compilation.

Structures are written as SMILES.

In turn, `COc1ccc(S(N)(=O)=O)cc1C(=O)NCC1CCCN1C` (stereo unspecified) displayed a lipophilicity (logP) of 1.01.
As for `COc1cc(C(=O)NCc2ccc(OCCN(C)C)cc2)cc(OC)c1OC`, the figure is 2.04; as for `COc1cccc(C(=O)NC2C[C@H]3CC[C@@H](C2)N3Cc2ccccc2)c1OC` (stereo partly specified), 3.07; as for `CCN1CCCC1CNC(=O)c1cc(S(=O)(=O)CC)c(N)cc1OC` (stereo unspecified), 2.42.
For the molecule `NC(=O)C1(N2CCCCC2)CCN(CCCC(=O)c2ccc(F)cc2)CC1`, the logP was 2.68.
On to `OCCN1CCN(CCCN2c3ccccc3Sc3ccc(C(F)(F)F)cc32)CC1`, for which the logP turned out to be 4.55.
`O=c1[nH]c2ccccc2n1C1CCN(CCCC(c2ccc(F)cc2)c2ccc(F)cc2)CC1` gave a logP of 6.06.
As for `O=C(NCCN1CCC(n2c(=O)[nH]c3cc(Cl)ccc32)CC1)c1ccc(F)cc1`, the lipophilicity (logP) turned out to be 4.02.
`C=CCN1CCCC1CNC(=O)c1cc2[nH]nnc2cc1OC` (stereo unspecified) returned a logP of 2.22.
As for `CCN1CCCC1CNC(=O)c1cc(S(=O)(=O)CC)ccc1OC` (stereo unspecified), the figure is 2.05.
`COc1ccc(S(N)(=O)=O)cc1C(=O)NCC1CCCN1Cc1ccc(F)cc1` (stereo unspecified) showed a logP of 2.08.

Broadly, the logP is a log measure of how a compound divides between an organic and an aqueous phase. Low readings indicate a more hydrophilic compound, high ones a more lipophilic compound.
